Data set [1] concerns the target glutamate recognition site of the NMDA receptor. Description: [3H]-glutamate receptor binding assay, synaptosomal membrane from rat cortex. Particulars: for IC50: rat cortex synaptosomal membrane, read-out: affinity in [3H]-glutamate binding assay (ability to displace 50% of the radioligand). As to the method:
(§1) Receptor binding experiments were performed using synaptosomal membrane from rat cortex according to means described in the literature.
(§2) Moreover, Bigge, et al., J. Med. Chem., 32 1580 (1989) discloses a [^3 H]-CCP binding assay result of 3.3 μM for the unsubstituted 5-(phosphonomethyl)-phenylalanine compound.

Data set [2] has the same target. Description: [3H]-CGP 39653 receptor binding assay, synaptosomal membrane from rat cortex. To be noted: read-out: affinity in [3H]-CGP binding assay (ability to displace 50% of the radioligand). As for the experimental part: as §1, §2
Data set [3] concerns the target T1, neutral amino acid transporter (Cricetulus griseus, UniProt G3GRU9).
T1 construct: uptake into Chinese hamster ovary (CHO) cells; endogenous in cells; host or cells: Chinese hamster ovary (CHO) cells
Description: Competition with [3H]-L-phenylalanine for uptake into CHO cells. The format is cell-based, Chinese hamster. Particulars: 20 μM [3H]-L-phenylalanine. As to the method: Transport capacity was determined by measuring the ability of these compounds to compete with L-phenylalanine for uptake into Chinese hamster ovary (CHO) cells. All transport studies were performed in the presence of 20 μM [^3 H]-L-phenylalanine and a varying amount of the inventive compound. The capacity of the compound for transport was evaluated by its ability to reduce the transport of phenylalanine. The compounds were determined to be either substrates or not substrates of the neutral amino acid transporter,and have KM values of between 20 and 500 μM.

Data set [4] deals with electroshock induced convulsions. Description: Electroshock induced convulsions in the mouse. The format is in vivo.
In a further data set the target is NMDA receptor. Particulars: read-out: [3H]-CCP binding assay result; cited from earlier work.

T1 sequence (G3GRU9 1-506): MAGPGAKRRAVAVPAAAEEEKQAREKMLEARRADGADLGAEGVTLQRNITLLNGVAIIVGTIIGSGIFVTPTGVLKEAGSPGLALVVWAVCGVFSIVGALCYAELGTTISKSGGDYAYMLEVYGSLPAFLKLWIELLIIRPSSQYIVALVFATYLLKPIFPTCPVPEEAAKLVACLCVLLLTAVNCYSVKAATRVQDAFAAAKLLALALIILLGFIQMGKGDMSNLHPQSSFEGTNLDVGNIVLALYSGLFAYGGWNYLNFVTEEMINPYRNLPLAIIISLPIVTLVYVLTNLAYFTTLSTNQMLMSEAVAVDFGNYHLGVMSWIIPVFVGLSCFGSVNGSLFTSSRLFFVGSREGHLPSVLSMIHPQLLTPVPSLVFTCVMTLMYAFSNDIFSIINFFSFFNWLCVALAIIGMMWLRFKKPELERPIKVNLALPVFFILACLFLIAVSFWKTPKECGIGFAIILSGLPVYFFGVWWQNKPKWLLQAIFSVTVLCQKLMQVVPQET
T1 sequence (A0A9J7CH39 1-533 partner): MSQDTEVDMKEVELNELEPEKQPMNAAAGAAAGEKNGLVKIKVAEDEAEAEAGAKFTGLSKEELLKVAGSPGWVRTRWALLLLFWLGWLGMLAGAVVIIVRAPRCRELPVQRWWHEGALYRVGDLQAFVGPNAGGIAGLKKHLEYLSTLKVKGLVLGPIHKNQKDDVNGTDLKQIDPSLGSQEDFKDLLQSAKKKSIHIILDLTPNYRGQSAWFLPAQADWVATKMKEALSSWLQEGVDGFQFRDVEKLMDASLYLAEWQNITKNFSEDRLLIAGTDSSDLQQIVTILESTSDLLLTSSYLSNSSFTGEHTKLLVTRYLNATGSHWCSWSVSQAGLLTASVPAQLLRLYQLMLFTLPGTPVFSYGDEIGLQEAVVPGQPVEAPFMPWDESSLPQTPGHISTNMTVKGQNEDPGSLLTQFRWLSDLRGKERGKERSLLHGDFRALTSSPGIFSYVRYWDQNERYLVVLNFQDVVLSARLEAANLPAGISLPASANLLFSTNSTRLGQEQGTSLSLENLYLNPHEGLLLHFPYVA

For the compound `NC(Cc1cc(CP(=O)(O)O)cc(-c2ccccc2)c1)C(=O)O` (single isomer, unassigned) [(+)-α-amino-3-(5-phosphonomethyl-[1,1'-biphenyl]-3-yl)propanoic acid, reference compound], the IC50 worked out at 0.115 µM in data set [1] and 0.098 µM in data set [2].
With `N[C@@H](Cc1cc(CP(=O)(O)O)cc(-c2cccc3ccccc23)c1)C(=O)O` [3-(1-Naphthalenyl)-5-(phosphonomethyl)-L-phenylalanine], the “improvement in potency, as measured by binding assays, over prior art NMDA receptor antagonists” value in data set [1] ([3H]-glutamate and [3H]-CGP binding, comparison with prior art compounds) was “at least a ten to thirty fold, and up to a several hundred fold improvement in potency”. Moreover, the results for the IC50 in data set [1] and in data set [2] were 0.004 µM and 0.008 µM, respectively. Besides, the “inhibition of phenylalanine transport” value in data set [3] is given as “inhibited phenylalanine transport in CHO cells”. Moreover, the ED50 – broadly, the midpoint of the dose-response relation – in data set [4] (iv, 50 mA 200 ms corneal shock, read-out: ED50, inhibition of hindlimb extension) was less than 1 mg/kg. For the same compound, the “anticonvulsant activity after oral administration” value in data set [4] (oral) is recorded as “demonstrates activity after oral administration with an extended duration of action”.
Consider `N[C@@H](Cc1cccc(CP(=O)(O)O)c1)C(=O)O` [5-(phosphonomethyl)-phenylalanine], for which the IC50 on NMDA receptor is 3.3 µM.

(Values after US5668121A, “Glutamate (NMDA) receptor antagonists” (Warner-Lambert Company, priority 1995, dated 1997).)
